Experimental data published in patent US20160067425A1, “DEVICES AND METHODS FOR TREATING TISSUES AND TISSUE CONDITIONS” (priority 2014, published 2016).

Experiments:
[1] = system: basal cell carcinoma (BCC); experiment: Intralesional treatment of clamp-isolated basal cell carcinoma on the ear lobe (Example 1); format: in vivo, human
Description: A person with basal cell carcinoma (one year history of asymptomatic growth) on their left ear lobe was treated by mechanically isolating the basal cell carcinoma (BCC). Diagnosis of BCC was made based on the lesion's clinical presentation as a well-circumscribed pearly nodule with central crusted ulceration (see FIG. 14A) and the results of a shave biopsy (see FIG. 15A). The patient refused surgical therapy.
A chalazion clamp was used to isolate the tissue surrounding the BCC. One fifth unit (0.2 cc×1 unit/cc) of bleomycin in 1% lidocaine was injected into the clamped region (systemic bleomycin concentrations are typically in the range of 0.00023 units/mL or about 1000×lower). […] After 20 minutes, an 18-gauge needle was used to remove most of the injected fluid from the clamped area. The chalazion clamp was then removed.

[2] = typical systemic range, compared with 1 unit/cc injected; cited from earlier work

In the case of bleomycin, the “adverse effects / patient complaints” value ([1]; 0.2 unit intralesional in clamped region, 20 minutes) is reported as “no adverse effects”, the “retention of injected agent in the pressure isolated region” value ([1]; chalazion clamp, evidenced by localized raised and stretched area of the skin) is reported as “remained within the clamped area” and the “clinical appearance of the BCC after treatment” value ([1]; patient, left ear lobe, 0.2 cc x 1 unit/cc in 1% lidocaine injected into chalazion-clamped region, removed after 20 minutes, 25-days post-treatment) is reported as “clinically cured”. The “histology from 4 mm punch biopsy after treatment” value ([1]; post-treatment punch biopsy, FIG. 15B) was “confirm by histology” and the “systemic concentrations typically used” value [2] was roughly 0.00023 units/mL.
